In US20040224958A1, “Pyridopyrimidinone derivatives for treatment of neurodegenerative disease” (priority 2000, published 2004):
Where two headings read alike, the source gives them in different places.

How the values were obtained:
Cdk5/p25 = Cdk5/p25 (Homo sapiens, UniProt Q00535); assay: Cyclin-Dependent Kinase 5 (cdk5) Assay; assay type: biochemical; details: Table 1
Protocol: Cyclin-Dependent Kinase 5 (cdk5) Assay
Enzyme assays for IC50 determinations and kinetic evaluation were performed in 96-well filter plates (Millipore MAPH NOB 10). […] All components except histone and ATP were added to wells, and the plate was placed on a shaker for 5 minutes. The reaction was started by adding histone and [^32P]ATP, and the plate was shaken at 30° C. for 45 minutes. The reaction was terminated by addition of 0.1 mL of 150 mM phosphoric acid. The plate was kept at 4° C. for 30 minutes to allow substrate to precipitate. The wells were then washed three times with 0.2 mL of 75 mM phosphoric acid and ^32P incorporation was determined with a beta plate counter (Wallac Inc, Gaithersburg, Md.).

cdk4/D = cdk4/D (Homo sapiens, UniProt P11802); assay: Cyclin-Dependent Kinase 4 (cdk4) Assay; assay type: biochemical; details: Table 1; read-out: cdk4/D IC50
cdk2/cyclinE = cdk2/cyclinE (Homo sapiens, UniProt P24941); assay: Cyclin-Dependent Kinase Assay cdk2/cyclinE
cdk2/cyclinA = cdk2/cyclinA (Homo sapiens, UniProt P24941); assay: Cyclin-Dependent Kinase Assay cdk2/cyclinA
cdc2/cyclinB = cdc2/cyclinB (Homo sapiens, UniProt P06493); assay: Cyclin-Dependent Kinase Assay cdc2/cyclinB
Sequence of cdc2/cyclinB (P06493 whole entry): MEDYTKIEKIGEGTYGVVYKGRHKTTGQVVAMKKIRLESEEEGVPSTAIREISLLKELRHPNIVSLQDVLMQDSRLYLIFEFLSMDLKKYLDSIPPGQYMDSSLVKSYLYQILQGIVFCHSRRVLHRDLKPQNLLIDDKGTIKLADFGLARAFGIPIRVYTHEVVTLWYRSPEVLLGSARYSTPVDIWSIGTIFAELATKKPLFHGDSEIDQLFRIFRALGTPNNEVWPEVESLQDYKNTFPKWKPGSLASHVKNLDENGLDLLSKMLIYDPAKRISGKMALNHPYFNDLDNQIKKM
Sequence of cdc2/cyclinB (P14635 whole entry, further chain): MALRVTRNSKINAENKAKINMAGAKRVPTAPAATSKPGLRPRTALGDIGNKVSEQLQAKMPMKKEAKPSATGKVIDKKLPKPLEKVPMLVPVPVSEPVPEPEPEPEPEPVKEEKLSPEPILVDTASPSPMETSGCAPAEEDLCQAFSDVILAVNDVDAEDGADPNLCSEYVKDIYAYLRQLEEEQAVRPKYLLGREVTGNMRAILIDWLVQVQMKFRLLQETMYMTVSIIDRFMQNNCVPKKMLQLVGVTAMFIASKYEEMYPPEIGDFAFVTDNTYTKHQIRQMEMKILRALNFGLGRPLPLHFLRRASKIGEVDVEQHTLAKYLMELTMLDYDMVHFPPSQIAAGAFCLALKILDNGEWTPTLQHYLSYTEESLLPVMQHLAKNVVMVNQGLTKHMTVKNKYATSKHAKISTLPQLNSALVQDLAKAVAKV

Sequence of cdk4/D (P11802 whole entry): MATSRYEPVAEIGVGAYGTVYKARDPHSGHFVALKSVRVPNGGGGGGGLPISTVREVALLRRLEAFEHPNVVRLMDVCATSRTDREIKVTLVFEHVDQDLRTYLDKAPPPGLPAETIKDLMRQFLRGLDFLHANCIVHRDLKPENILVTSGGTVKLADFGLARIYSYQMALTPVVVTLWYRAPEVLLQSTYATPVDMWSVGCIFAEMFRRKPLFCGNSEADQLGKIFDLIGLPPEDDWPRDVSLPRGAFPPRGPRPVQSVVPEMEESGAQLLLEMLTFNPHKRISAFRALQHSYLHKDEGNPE
Sequence of cdk4/D (P24385 whole entry, further chain): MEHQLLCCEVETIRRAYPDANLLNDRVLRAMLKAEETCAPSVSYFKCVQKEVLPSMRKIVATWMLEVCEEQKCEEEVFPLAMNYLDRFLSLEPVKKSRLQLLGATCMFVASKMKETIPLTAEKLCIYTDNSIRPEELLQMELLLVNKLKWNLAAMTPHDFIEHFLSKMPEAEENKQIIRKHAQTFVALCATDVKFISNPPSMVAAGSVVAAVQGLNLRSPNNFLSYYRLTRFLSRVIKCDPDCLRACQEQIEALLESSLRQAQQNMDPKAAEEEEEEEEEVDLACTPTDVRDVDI

Compound	IC50 (Cdk5/p25)	melting point	further results
CN1CCN(c2ccc(Nc3ncc4ccc(=O)n(C5CC5)c4n3)cc2)CC1 [Example 136, 8-Cyclopropyl-2-[4-(4-methyl-piperazin-1-yl)-phenylamino]-81H-pyrido[2,3-d]pyrimidin-7-one]	240 nM	210 to 211 °C	
Cc1cc(C)n(-c2ccc(Nc3ncc4ccc(=O)n(C5CCCC5)c4n3)cc2)n1 [Example 195, 8-Cyclopentyl-2-[4-(3,5-dimethyl-pyrazol-1-yl)-phenylamino]-8H-pyrido[2,3-d]pyrimidin-7-one]	156 nM	169 to 171 °C	IC50 (cdk4/D): 133 nM
O=c1ccc2cnc(Nc3ccccc3)nc2n1Cc1ccccc1 [Example 35, 8-Benzyl-2-phenylamino-8H-pyrido[2,3-d]pyrimidin-7-one]	310 nM	215 to 216 °C	IC50 (cdk4/D): 940 nM; IC50 (cdk2/cyclinE; cdk2/E IC50, Table 1): 33800 nM
CN(C)c1ccc(Nc2ncc3ccc(=O)n(C4CCCCC4)c3n2)cc1 [Example 147, 8-Cyclohexyl-2-(4-dimethylamino-phenylamino)-8H-pyrido[2,3-d]pyrimidin-7-one]	24 nM	204 to 205 °C	
CCN(CC)CCOc1ccc(Nc2ncc3ccc(=O)n(C4CC4)c3n2)cc1 [Example 134, 8-Cyclopropyl-2-[4-(2-diethylamino-ethoxy)-phenylamino]-8H-pyrido[2,3-d]pyrimidin-7-one]	326 nM	119 to 121 °C	IC50 (cdk4/D): 53 nM
O=c1ccc2cnc(Nc3ccccc3)nc2n1C1CCCCC1 [Example 131, 8-Cyclohexyl-2-phenylamino-8H1-pyrido[2,3-d]pyrimidin-7-one]	15 nM	202 to 204 °C	
O=c1ccc2cnc(Nc3ccccc3)nc2n1C1CCCC1 [Example 108, 8-Cyclopentyl-2-phenylamino-8H-pyrido[2,3-d]pyrimidin-7-one]	26 nM	188 to 192 °C	
CCN1C(=O)CCc2cnc(Nc3ccccc3)nc21 [Example 69, 8-Ethyl-2-phenylamino-5,8-dihydro-6H-pyrido[2,3-d]pyrimidin-7-one]	65 nM	146 to 147 °C	
O=c1ccc2cnc(Nc3cccc(N4CCCCC4)c3)nc2n1C1CCCC1 [Example 202, 8-Cyclopentyl-2-(3-piperidin-1-yl-phenylamino)-8H-pyrido[2,3-d]pyrimidin-7-one]	77.9 nM	90 to 91 °C	IC50 (cdk4/D): 655 nM
O=c1ccc2cnc(Nc3ccccc3)nc2n1C1CC1 [Example 135, 8-Cyclopropyl-2-phenylamino-8H-pyrido[2,3-d]pyrimidin-7-one]	493 nM	191 to 193 °C	
O=c1ccc2cnc(Nc3ccc(N4CCCCC4)cc3)nc2n1C1CCCCCC1 [Example 163, 8-Cycloheptyl-2-(4-piperidin-1-yl-phenylamino)-8H-pyrido[2,3-d]primidin-7-one]	150 nM		IC50 (cdk4/D): 31.5 nM; IC50 (cdk2/cyclinE; read-out: cdk2/E IC50, Table 1): 193 nM; IC50 (cdk2/cyclinA; read-out: cdk2/A IC50, Table 1): 66.8 nM; IC50 (cdc2/cyclinB; read-out: cdk1/B IC50, Table 1): 642 nM
O=c1ccc2cnc(Nc3ccc(N4CCCC(O)C4)cc3)nc2n1C1CC2CCC1C2 (centres unmarked) [Example 254]	44.9 nM		IC50 (cdk4/D): 3.5 nM; IC50 (cdk2/cyclinE; cdk2/E IC50, Table 1): 64 nM; IC50 (cdk2/cyclinA; cdk2/A IC50, Table 1): 28 nM; IC50 (cdc2/cyclinB): 175 nM
O=c1ccc2cnc(Nc3cccc(N4CCCCC4)c3)nc2n1C1CCCCC1 [Example 203, 8-Cyclohexyl-2-(3-piperidin-1-yl-phenylamino)-8H-pyrido[2,3-d]pyrimidin-7-one]	82.6 nM	164 to 165 °C	IC50 (cdk4/D): 500 nM
CCn1c(=O)c(C)cc2cnc(Nc3ccc(N4CCN(C)CC4)cc3)nc21 [Example 84, 8-Ethyl-6-methyl-2-[4-(4-methyl-piperazin-1-yl)-phenylamino]-8H-pyrido[2,3-d]pyrimidin-7-one]	765 nM	198 to 200 °C	

The next lines start with results.

IC50 (Cdk5/p25)	melting point	Compound	further results
107 nM	227 to 228 °C	CCn1c(=O)ccc2cnc(Nc3ccc(N4CCOCC4)cc3)nc21 [Example 79, 8-Ethyl-2-(4-morpholin-4-yl-phenylamino)-8H-pyrido[2,3-d]pyrimidin-7-one]	
64 nM	189 to 191 °C	CCn1c(=O)ccc2cnc(Nc3ccc(N(C)C)cc3)nc21 [Example 93, 2-(4-Dimethylamino-phenylamino)-8-ethyl-8H-pyrido[2,3-d]pyrimidin-7-one]	
239 nM	185 to 186 °C	CCn1c(=O)ccc2cnc(Nc3ccc(N4CCN(C)CC4)cc3)nc21 [Example 53, 8-Ethyl-2-[4-(4-methylpiperazin-1-yl)-phenylamino]-8H-pyrido[2,3-d]-pyrimidin-7-one]	
49 nM	196 to 197 °C	CCn1c(=O)ccc2cnc(Nc3ccc(OC)cc3)nc21 [Example 51, 8-Ethyl-2-(4-methoxyphenylamino)-8H-pyrido[2,3-d]pyrimidin-7-one]	
568 nM	175 to 176 °C	CCn1c(=O)ccc2cnc(Nc3cccc(OC(F)(F)C(F)F)c3)nc21 [Example 54, 8-Ethyl-2-[3-(1,1,2,2-tetrafluoroethoxy)-phenylamino]-8H-pyrido[2,3-d]-pyrimidin-7-one]	
1680 nM	126 to 128 °C	CCn1c(=O)ccc2cnc(Nc3ccccc3OC)nc21 [Example 92, 8-Ethyl-2-(2-methoxyphenylamino)-8H-pyrido[2,3-d]pyrimidin-7-one]	
587 nM	178 to 180 °C	CCn1c(=O)c(C)cc2cnc(Nc3ccccc3)nc21 [Example 83, 8-Ethyl-6-methyl-2-phenylamino-8H-pyrido[2,3-d]pyrimidin-7-one]	
218 nM	169 to 171 °C	CCn1c(=O)ccc2cnc(Nc3ccc(OCCOC)cc3)nc21 [Example 57, 8-Ethyl-2-[4-(2-methoxyethoxy)phenylamino]-8H-pyrido[2,3-d]pyrimidin-7-one]	
29 nM	196 to 198 °C	CCn1c(=O)ccc2cnc(Nc3ccc(OC)c(F)c3)nc21 [Example 90, 8-Ethyl-2-(3-fluoro-4-methoxyphenylamino)-8H-pyrido[2,3-d]pyrimidin-7-one]	
155 nM	128 to 129 °C	CCN(CC)CCOc1ccc(Nc2ncc3ccc(=O)n(CC)c3n2)cc1 [Example 52, 2-[4-(2-Diethylaminoethoxy)-phenylamino]-8-ethyl-8H-pyrido[2,3-d]-pyrimidin-7-one]	
15 nM	170 to 171 °C	CC(C)Cn1c(=O)ccc2cnc(Nc3ccccc3)nc21 [Example 42, 8-Isobutyl-2-phenylamino-8H-pyrido[2,3-d]pyrimidin-7-one]	
65 nM	203 to 204 °C	CCn1c(=O)ccc2cnc(Nc3ccccc3)nc21 [Example 18, 8-Ethyl-2-phenylamino-8H-pyrido[2,3-d]pyrimidin-7-one]	
393 nM	210 to 212 °C	CCn1c(=O)ccc2cnc(Nc3cccc(F)c3)nc21 [Example 89, 8-Ethyl-2-(3-fluorophenylamino)-8H-pyrido[2,3-d]pyrimidin-7-one]	
4450 nM	92 to 93 °C	CCn1c(=O)ccc2cnc(Nc3cccc(F)c3OC)nc21 [Example 91, 8-Ethyl-2-(3-fluoro-2-methoxyphenylamino)-8H-pyrido[2,3-d]pyrimidin-7-one]	
